Laboratory results taken from publication PMC9916866 (International Journal of Molecular Sciences, 2023).
Where two headings read alike, the source gives them in different places. Positions of bridges follow the written chain, without caps; N, C: chain ends. Residues, ends and D or L forms follow the SMILES beside them.

Tests used:
human AT2 receptor = biological target: T1, human AT2 receptor (Homo sapiens, UniProt P50052); assay: biochemical; type: binding
T1 construct: expressed in transfected cells; host or cells: HEK293T
T1 sequence (P50052 1-363): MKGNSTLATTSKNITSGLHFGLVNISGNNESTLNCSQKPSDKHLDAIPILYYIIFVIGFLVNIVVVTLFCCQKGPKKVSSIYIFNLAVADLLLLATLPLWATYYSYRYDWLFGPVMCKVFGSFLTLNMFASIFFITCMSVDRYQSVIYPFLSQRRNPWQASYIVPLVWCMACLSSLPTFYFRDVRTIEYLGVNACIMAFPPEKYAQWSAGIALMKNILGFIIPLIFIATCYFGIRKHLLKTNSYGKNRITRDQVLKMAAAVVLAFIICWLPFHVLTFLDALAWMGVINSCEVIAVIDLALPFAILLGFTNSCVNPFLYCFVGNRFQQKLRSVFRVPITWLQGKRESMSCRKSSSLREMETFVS

AT1 receptor [1] = biological target: T2, AT1 receptor (Rattus norvegicus, UniProt P25095); assay: biochemical; type: binding; conditions: read-out: inhibition of the specific labelling by Cy5-AngII, AT1
AT1 receptor [2] = biological target: T2, AT1 receptor; assay: cell-based
AT1 receptor [3] = biological target: T2, AT1 receptor; assay: cell-based; conditions: read-out: inhibition of AngII-induced ERK1/2 phosphorylation (western blot)
AT1 receptor [4] = biological target: T3, AT1 receptor (Homo sapiens, UniProt P30556); assay: cell-based
T3 sequence (P30556 1-359): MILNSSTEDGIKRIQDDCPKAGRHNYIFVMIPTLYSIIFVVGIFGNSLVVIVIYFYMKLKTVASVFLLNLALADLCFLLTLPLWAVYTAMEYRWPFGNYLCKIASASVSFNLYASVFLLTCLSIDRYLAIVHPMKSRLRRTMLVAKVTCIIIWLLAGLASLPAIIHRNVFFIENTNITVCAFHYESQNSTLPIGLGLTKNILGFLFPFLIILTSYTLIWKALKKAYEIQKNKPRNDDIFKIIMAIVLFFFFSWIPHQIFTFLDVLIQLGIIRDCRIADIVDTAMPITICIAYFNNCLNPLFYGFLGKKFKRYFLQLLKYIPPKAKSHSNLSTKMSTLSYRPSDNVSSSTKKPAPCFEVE

AT1 receptor [5] = biological target: T3, AT1 receptor; assay: biochemical; type: binding; set-up: expressed in transfected cells; host or cells: HEK293T
AT1 receptor [6] = biological target: T3, AT1 receptor; assay: cell-based; type: cell-based; set-up: expressed in transfected cells; host or cells: HEK293T

T2 sequence (P25095 whole entry, looked up): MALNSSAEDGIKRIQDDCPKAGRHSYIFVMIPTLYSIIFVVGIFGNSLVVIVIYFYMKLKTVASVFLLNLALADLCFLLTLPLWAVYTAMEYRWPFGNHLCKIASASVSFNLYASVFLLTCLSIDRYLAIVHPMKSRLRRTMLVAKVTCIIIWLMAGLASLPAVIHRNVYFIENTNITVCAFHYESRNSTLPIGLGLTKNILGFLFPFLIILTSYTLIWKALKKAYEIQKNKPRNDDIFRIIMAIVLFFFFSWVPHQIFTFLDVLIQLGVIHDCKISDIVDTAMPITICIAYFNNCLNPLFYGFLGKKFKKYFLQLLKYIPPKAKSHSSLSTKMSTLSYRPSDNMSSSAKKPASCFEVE

## CC(C)[C@@H]1NC(=O)[C@H](Cc2c[nH]c3ccccc23)NC(=O)[C@H](Cc2ccccc2)NC(=O)[C@H](Cc2c[nH]cn2)NC(=O)[C@@H](N)CSSC[C@@H](C(=O)N2CCC[C@H]2C(=O)O)NC1=O [A-CTX-cMila] (H-CHFWVCP-OH; disulfide 1-6)
Human AT2 receptor
  Ki: 27.5 ± 2.1 µM
AT1 receptor [1]
  inhibition at 100 µM: 74%
AT1 receptor [2]
  IC50: 23.7 ± 4.6 µM
AT1 receptor [3]
  inhibition at 20 µM: 89%
AT1 receptor [4]
  IC50: 15.6 ± 3 µM
AT1 receptor [4]; KB, β-arrestin 2 recruitment
  Kb: 4.1 ± 3.1 µM
AT1 receptor [4]; pA2, β-arrestin 2 recruitment
  Kb: 2 µM
AT1 receptor [5]
  Ki: 0.32 ± 0.13 µM
AT1 receptor [6]
  IC50: 28.5 ± 12 µM
